The source made the active and inactive calls. The calls are words filed in the database; no cut-off is given here.
Key:
[1] = biological target: Tyrosine-protein kinase ABL1 (Homo sapiens) (UniProt P00519); test: Inhibition of ABL1 using poly(Ala, Glu, Lys, Tyr) as substrate and [gamma33P]ATP at 1 uM after 60 mins by scintillation counting
[2] = biological target: T1, Epidermal growth factor receptor (Homo sapiens, UniProt P00533); test: Inhibition of EGFR using poly(Glu,Tyr)4:1 as substrate and [gamma33P]ATP at 1 uM after 60 mins by scintillation counting
T1 sequence (P00533 whole entry): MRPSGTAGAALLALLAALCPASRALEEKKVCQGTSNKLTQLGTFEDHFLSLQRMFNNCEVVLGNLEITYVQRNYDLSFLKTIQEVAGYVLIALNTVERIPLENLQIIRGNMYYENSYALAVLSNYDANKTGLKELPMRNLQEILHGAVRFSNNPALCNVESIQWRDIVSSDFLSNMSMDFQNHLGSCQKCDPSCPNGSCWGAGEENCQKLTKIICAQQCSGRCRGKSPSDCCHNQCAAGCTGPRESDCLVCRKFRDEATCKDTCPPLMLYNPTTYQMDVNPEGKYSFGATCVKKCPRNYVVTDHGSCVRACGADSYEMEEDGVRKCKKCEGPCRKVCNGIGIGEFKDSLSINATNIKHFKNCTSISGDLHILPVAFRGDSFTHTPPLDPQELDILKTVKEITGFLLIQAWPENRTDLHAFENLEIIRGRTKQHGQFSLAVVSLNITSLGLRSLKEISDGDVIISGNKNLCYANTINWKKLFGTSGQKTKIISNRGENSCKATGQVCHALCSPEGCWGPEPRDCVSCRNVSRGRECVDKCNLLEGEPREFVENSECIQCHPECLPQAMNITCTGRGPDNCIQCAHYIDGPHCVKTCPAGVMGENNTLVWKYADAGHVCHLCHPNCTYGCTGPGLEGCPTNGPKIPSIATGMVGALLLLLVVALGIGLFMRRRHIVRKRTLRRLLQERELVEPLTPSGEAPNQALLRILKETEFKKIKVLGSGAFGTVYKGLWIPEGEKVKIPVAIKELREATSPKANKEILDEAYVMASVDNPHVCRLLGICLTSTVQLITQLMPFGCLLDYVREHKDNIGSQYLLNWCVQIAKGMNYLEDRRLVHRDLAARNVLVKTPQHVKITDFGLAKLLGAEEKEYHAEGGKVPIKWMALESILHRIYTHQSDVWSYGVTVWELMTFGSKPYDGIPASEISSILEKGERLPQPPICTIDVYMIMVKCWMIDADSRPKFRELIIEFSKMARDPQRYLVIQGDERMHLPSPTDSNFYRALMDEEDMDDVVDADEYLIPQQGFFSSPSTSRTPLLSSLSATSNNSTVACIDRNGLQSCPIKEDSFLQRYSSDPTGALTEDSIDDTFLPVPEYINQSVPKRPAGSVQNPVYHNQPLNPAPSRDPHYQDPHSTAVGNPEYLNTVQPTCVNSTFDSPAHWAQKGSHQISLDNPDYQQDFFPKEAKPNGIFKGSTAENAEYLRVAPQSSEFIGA

[3] = biological target: Vascular endothelial growth factor receptor 2 (Homo sapiens) (UniProt P35968); test: Inhibition of VEGFR2 using poly(Glu,Tyr)4:1 as substrate and [gamma33P]ATP at 1 uM after 60 mins by scintillation counting
[4] = biological target: Receptor tyrosine-protein kinase erbB-2 (Homo sapiens) (UniProt P04626); test: Inhibition of Erbb2 using poly(Glu,Tyr)4:1 as substrate and [gamma33P]ATP at 1 uM after 60 mins by scintillation counting
Sequence of Receptor tyrosine-protein kinase erbB-2 (Homo sapiens) (P04626 whole entry): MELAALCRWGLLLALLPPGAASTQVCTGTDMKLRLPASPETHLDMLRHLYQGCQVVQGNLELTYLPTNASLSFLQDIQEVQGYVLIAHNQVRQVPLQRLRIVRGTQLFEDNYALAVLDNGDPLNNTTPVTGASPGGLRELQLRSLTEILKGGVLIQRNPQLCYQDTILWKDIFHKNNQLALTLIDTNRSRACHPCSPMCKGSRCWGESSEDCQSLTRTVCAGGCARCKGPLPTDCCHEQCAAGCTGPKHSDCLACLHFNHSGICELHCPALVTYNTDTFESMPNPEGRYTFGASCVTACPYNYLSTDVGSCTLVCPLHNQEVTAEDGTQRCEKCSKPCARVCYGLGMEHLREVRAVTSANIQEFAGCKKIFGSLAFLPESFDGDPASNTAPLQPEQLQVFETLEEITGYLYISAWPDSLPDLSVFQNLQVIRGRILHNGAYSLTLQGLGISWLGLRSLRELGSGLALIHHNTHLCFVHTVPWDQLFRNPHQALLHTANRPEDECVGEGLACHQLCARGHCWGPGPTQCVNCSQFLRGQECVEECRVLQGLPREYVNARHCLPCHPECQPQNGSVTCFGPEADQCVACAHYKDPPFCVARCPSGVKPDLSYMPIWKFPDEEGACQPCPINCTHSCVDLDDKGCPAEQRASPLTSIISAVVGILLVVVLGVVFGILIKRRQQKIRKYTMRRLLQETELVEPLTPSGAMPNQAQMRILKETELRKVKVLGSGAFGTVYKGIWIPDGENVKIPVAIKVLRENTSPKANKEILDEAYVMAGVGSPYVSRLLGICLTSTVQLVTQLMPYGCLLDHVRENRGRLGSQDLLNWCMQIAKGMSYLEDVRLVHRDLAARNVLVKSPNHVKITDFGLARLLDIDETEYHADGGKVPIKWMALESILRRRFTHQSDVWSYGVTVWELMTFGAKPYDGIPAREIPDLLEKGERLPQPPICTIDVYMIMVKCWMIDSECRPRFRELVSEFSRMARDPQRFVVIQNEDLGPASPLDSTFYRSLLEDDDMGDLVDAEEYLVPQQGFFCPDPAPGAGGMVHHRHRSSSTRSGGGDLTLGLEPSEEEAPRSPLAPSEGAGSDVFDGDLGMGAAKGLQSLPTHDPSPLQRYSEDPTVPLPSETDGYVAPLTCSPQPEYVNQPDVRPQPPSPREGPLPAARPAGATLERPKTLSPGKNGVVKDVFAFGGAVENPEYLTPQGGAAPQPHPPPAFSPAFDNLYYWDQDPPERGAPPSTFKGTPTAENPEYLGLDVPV

[5] = biological target: Hepatocyte growth factor receptor (Homo sapiens) (UniProt P08581); test: Inhibition of MET using poly(Ala, Glu, Lys, Tyr) as substrate and [gamma33P]ATP at 1 uM after 60 mins by scintillation counting
Sequence of Hepatocyte growth factor receptor (Homo sapiens) (P08581 whole entry): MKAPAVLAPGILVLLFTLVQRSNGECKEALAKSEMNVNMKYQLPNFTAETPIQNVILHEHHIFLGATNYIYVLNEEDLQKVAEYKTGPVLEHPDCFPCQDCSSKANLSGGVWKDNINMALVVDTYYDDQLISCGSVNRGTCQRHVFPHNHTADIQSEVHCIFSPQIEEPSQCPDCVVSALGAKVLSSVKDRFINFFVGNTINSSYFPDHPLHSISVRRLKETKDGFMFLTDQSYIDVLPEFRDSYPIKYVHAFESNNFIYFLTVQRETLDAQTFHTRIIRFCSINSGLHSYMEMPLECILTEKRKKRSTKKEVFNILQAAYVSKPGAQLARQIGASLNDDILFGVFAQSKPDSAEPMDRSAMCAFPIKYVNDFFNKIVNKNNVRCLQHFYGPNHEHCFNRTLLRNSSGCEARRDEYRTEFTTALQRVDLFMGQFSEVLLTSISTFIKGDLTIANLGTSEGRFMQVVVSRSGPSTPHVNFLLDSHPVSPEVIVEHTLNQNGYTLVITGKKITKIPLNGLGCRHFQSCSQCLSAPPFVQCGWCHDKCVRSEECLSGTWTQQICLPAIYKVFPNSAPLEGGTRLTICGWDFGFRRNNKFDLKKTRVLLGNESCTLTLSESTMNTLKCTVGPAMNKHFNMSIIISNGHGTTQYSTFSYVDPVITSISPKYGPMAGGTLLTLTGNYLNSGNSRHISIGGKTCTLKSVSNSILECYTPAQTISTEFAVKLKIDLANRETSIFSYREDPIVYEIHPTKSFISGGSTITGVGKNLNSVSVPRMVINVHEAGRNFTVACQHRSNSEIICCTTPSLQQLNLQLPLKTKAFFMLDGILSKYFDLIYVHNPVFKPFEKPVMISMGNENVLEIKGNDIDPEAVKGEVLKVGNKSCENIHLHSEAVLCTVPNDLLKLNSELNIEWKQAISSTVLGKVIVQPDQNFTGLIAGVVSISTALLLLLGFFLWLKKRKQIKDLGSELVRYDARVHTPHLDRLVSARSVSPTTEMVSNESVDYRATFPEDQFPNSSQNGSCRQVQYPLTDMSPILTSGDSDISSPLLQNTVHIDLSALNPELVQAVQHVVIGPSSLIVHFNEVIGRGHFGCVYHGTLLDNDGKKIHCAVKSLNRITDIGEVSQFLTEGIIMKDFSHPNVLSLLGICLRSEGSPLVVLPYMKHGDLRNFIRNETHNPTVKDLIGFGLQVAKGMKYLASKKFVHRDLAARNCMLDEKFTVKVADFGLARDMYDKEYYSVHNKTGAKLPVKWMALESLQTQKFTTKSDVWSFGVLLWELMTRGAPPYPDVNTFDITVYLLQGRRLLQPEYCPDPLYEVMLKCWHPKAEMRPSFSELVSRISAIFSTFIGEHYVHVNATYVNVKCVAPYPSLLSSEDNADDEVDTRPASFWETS

[6] = biological target: T1, Epidermal growth factor receptor; test: Inhibition of EGFR using poly(Glu,Tyr)4:1 as substrate and [gamma33P]ATP after 60 mins by scintillation counting

Sequence of Tyrosine-protein kinase ABL1 (Homo sapiens) (P00519 whole entry): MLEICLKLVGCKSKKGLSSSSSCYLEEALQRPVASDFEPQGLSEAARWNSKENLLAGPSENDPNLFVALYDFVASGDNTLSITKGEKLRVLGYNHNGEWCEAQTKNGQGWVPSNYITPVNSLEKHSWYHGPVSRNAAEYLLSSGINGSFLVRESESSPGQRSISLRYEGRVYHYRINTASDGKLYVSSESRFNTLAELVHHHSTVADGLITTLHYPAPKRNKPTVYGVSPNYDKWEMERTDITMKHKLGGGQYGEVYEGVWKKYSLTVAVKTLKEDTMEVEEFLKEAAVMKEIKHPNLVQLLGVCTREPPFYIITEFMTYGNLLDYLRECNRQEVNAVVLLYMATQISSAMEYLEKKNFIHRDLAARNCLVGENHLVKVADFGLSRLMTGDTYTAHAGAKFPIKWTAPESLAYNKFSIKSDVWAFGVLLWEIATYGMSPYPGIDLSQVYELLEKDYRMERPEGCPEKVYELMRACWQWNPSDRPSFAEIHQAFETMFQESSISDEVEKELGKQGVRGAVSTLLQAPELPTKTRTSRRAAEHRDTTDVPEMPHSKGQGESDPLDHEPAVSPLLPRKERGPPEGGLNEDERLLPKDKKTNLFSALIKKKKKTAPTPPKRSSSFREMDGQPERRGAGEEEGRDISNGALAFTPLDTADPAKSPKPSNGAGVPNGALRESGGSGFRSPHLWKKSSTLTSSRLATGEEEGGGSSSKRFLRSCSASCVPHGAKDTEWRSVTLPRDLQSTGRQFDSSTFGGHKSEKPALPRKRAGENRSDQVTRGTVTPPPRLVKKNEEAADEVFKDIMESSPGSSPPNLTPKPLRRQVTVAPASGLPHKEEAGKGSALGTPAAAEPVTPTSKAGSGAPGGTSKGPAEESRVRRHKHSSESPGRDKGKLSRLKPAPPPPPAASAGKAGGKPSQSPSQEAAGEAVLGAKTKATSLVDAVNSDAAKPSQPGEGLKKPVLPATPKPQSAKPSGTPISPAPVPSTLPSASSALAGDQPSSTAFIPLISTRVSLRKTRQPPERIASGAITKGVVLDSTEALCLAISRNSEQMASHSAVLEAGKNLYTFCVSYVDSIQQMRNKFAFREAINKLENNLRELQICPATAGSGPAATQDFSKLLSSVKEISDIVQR

inhibition [1] | inhibition [2] [%] | inhibition [3] [%] | inhibition [4] [%] | inhibition [5] | IC50 [6] [nM] | Compound
inactive | 80 | 19 | 46 | inactive |  | O=C(c1cc2ccccc2[nH]1)c1cc2c(Nc3ccc(Cl)cc3)ncnc2s1
inactive | 68 | 47 | 24 | inactive |  | O=C(c1cc2ccccc2[nH]1)c1cc2c(Nc3ccc(Cl)cc3)ncnc2[nH]1
inactive | 73 | 0 | 75 | inactive |  | O=C(c1cc2ccccc2[nH]1)c1cc2c(Nc3cccc(I)c3)ncnc2s1
inactive | 77 | 17 | 38 | inactive |  | O=C(c1cc2ccccc2[nH]1)c1cc2c(NCc3ccccc3)ncnc2s1
inactive | 82 | 46 | 51 | inactive |  | O=C(c1cc2ccccc2[nH]1)c1cc2c(Nc3ccc(Br)cc3F)ncnc2s1
inactive | 77 | 53 | 13 | inactive |  | O=C(c1cc2ccccc2[nH]1)c1cc2c(Nc3ccc(OCc4cccc(F)c4)cc3Cl)ncnc2[nH]1
inactive | 43 | 24 | 34 | inactive |  | O=C(c1cc2ccccc2[nH]1)c1cc2c(Nc3ccc(C(F)(F)F)cc3)ncnc2s1
inactive | 88 | 47 | 22 | inactive |  | O=C(c1cc2ccccc2[nH]1)c1cc2c(Nc3ccc(F)c(Cl)c3)ncnc2[nH]1
inactive | 55 | 13 |  | inactive |  | O=C(c1cc2ccccc2[nH]1)c1cc2c(NCc3ccccc3)ncnc2[nH]1
inactive | 77 | 20 | 20 | inactive |  | COc1cnc2[nH]c(C(=O)c3cc4c(Nc5cccc(I)c5)ncnc4[nH]3)cc2c1
inactive | 85 | 51 | 88 | inactive |  | O=C(c1cc2ccccc2o1)c1cc2c(Nc3ccc(F)c(Cl)c3)ncnc2s1
inactive | 88 | 5 | 61 | inactive |  | C[C@@H](Nc1ncnc2sc(C(=O)c3cc4ccccc4[nH]3)cc12)c1ccccc1
inactive | 0 | 0 | 0 | inactive |  | O=C(c1cc2cc(O)ccc2[nH]1)c1cc2cncnc2[nH]1
inactive | 82 | 28 | 37 | inactive |  | C[C@@H](Nc1ncnc2[nH]c(C(=O)c3cc4ccccc4[nH]3)cc12)c1ccccc1
inactive | 79 | 29 | 42 | inactive |  | O=C(c1cc2ccccc2[nH]1)c1cc2c(Nc3cccc(C(F)(F)F)c3)ncnc2s1
inactive | 57 | 31 | 7 | inactive |  | O=C(c1cc2ccccc2[nH]1)c1cc2c(Nc3ccc(O)cc3)ncnc2[nH]1
inactive | 50 | 22 | 14 | inactive |  | O=C(c1cc2ccccc2[nH]1)c1cc2c(Nc3ccc(Br)cc3F)ncnc2[nH]1
inactive | 83 | 5 | 70 | inactive |  | C#Cc1cccc(Nc2ncnc3[nH]c(C(=O)c4cc5ccccc5[nH]4)cc23)c1
inactive | 93 | 9 | 60 | inactive | 18.7 | C#Cc1cccc(Nc2ncnc3sc(C(=O)c4cc5ccccc5[nH]4)cc23)c1
inactive | 99 | 22 | 76 | inactive | 10.8 | O=C(c1cc2ccccc2s1)c1cc2c(Nc3ccc(F)c(Cl)c3)ncnc2s1
inactive | 88 | 17 | 25 | inactive |  | COc1ccc2[nH]c(C(=O)c3cc4c(Nc5cccc(I)c5)ncnc4[nH]3)cc2c1
inactive | 96 | 45 | 50 | inactive | 43.7 | O=C(c1cc2ccccc2[nH]1)c1cc2c(Nc3ccc(F)cc3)ncnc2s1
inactive | 91 | 29 | 57 | inactive | 18.5 | O=C(c1cc2ccccc2[nH]1)c1cc2c(Nc3ccc(OCc4cccc(F)c4)cc3Cl)ncnc2s1
inactive | 88 | 10 | 52 | inactive |  | O=C(c1cc2ccccc2[nH]1)c1cc2c(Nc3cccc(I)c3)ncnc2[nH]1
inactive | 22 | 23 | 83 | inactive |  | CN(c1ccc(F)c(Cl)c1)c1ncnc2sc(C(=O)c3cc4ccccc4[nH]3)cc12
